In patent publication US20240150389A1, “MODIFIED GUANINES” (NUCLERA NUCLEICS LTD, priority 2021, published 2024):

Legend:
TdT = assay: Enzymatic DNA synthesis reactions (N+20 nucleotide additions with TdT, analysed by next-generation sequencing); format: biochemical
Procedure: Enzymatic N+20 nucleotide addition reactions were conducted on polymer-coated silica paramagnetic particles. Enzymatic DNA synthesis was performed on a ThermoFisher KingFisher sample purification system. Enzymatic DNA synthesis consists of cycles of addition solution (containing TdT, reversibly terminated nucleotide and a near-neutral extension solution comprising one or more buffers (e.g., Tris or cacodylate), one or more salts (e.g., Na^+, K^+, Mg^2+, Mn^2+, Cu^2+, Zn^2+, Co^2+, etc. all with appropriate counterions, such as Cl^−) and inorganic pyrophosphatase (e.g., the Saccharomyces cerevisiae homolog)), wash 1 solution (HEPES+5 mM EDTA at pH 8.00), deblock solution (sodium nitrite at pH 5.5), and wash 2 solution (HEPES at pH 7.20). The following sequences […] (Oligo A) and […] (Oligo B) were synthesized in triplicate. DNA products were analysed by next-generation sequencing on an Illumina MiniSeq. Data showing the percent perfect sequences are shown in the following plots for synthesis of these sequences with reversibly terminated dG and reversibly terminated 8-aza-dG; other nucleotides are reversibly terminated dA, dC or dT.

[1] = Stability tests of modified 2′-deoxyguanosines in NDS buffer vs. 2′-deoxyguanosine (nitrite-mediated deamination); format: physicochemical; conditions: for stability in NDS compared with 2′-deoxyguanosine: nitrite deprotection solution (sodium nitrite in 1M sodium acetate, pH 5.5), room temperature, over 4 days, HPLC or LC/MS
Procedure: Stability Tests of Modified 2′-Deoxyguanosines in NDS Buffer vs. 2′-Deoxyguanosine
Nitrite deprotection solution (NDS) was prepared from sodium nitrite (380 mg, 5.5 mmol) and 1M pH 5.5 sodium acetate (7.868 mL) and adjusted to pH 5.5 with 10M sodium hydroxide. Samples of nucleoside (˜0.5 mg) were dissolved in 1 mL aliquots of this buffer. The samples were analysed by HPLC or LC/MS using Method 1 or Method 2 immediately after making up the samples and at intervals over 4 days while stored at room temperature alongside reference samples of 2′-deoxyguanosine. 2′-Deoxyguanosine gave an approximately 8:1 mixture of 2′-deoxyxanthosine and Peak (3) with the same mass as 2′-deoxyxanthosine. 7-Deaza-2′-deoxyguanosine gave 7-deaza-2′-deoxyxanthosine as one component of a complex mixture of products. Other nucleosides gave products with masses corresponding to the products of substitution of NH2 with OH (increase of 1 Da) assigned to the 2′-deoxyxanthosine analogues. Data for 7-deaza-2′-deoxyguanosine (X=CH, Y=CH), 7-deaza-7-trifluoromethyl-2′-deoxyguanosine (X=CCF3, Y=CH), 7-deaza-7-cyano-2′-deoxyguanosine, 7-deaza-7-methanesulfonyl-2′-deoxyguanosine (X=CSO2Me, Y=CH) and 8-aza-2′-deoxyguanosine (X=N, Y=N) for experiments run in parallel with 2′-deoxyguanosine (X=CH, Y=N) are shown in the plots below.

Row | stability in NDS compared with 2′-deoxyguanosine [1] | Compound | other results
1 | – | 3′-(O)-Acetoxime-8-Aza-2′-Deoxyguanosine 5′-Triphosphate [reversibly terminated 8-aza-dG] | efficiency of additions of any nucleotide to 8-aza-dG terminated sequences compared with dG terminated sequences (TdT; TdT addition, Oligo A and Oligo B): less efficient; percent perfect sequences compared with products made with dG (TdT; synthesis of Oligo A and Oligo B in triplicate, Illumina MiniSeq): lower level of percent perfect sequences
2 | slightly more stable | CS(=O)(=O)c1cn(C2CC(O)C(CO)O2)c2nc(N)[nH]c(=O)c12 (stereo not shown) [7-(MethanesulfonyI)-7-Deaza-2′-Deoxyguanosine] | –
3 | much less stable | Nc1nc2c(ccn2[C@H]2C[C@H](O)[C@@H](CO)O2)c(=O)[nH]1 [7-Deaza-2′-deoxyguanosine, reference compound] | –
4 | slightly more stable | Nc1nc2c(c(C(F)(F)F)cn2[C@H]2C[C@H](O)[C@@H](CO)O2)c(=O)[nH]1 [7-Deaza-7-Trifluoromethyl-2′-Deoxyguanosine] | –
5 | slightly more stable | N#Cc1cn([C@H]2C[C@H](O)[C@@H](CO)O2)c2nc(N)[nH]c(=O)c12 [7-deaza-7-cyano-2′-deoxyguanosine, 7-Deaza-7-Cyano-2′-Deoxyguanosine] | –
6 | – | Nc1nc2c(nnn2[C@H]2C[C@H](O)[C@@H](CO)O2)c(=O)[nH]1 [8-Aza-2′-deoxyguanosine] | factor by which more stable in NDS than 2′-deoxyguanosine ([1]; nitrite deprotection solution pH 5.5, room temperature, run in parallel with 2′-deoxyguanosine): 4.2
